# From patent US11707440B2 (priority 2017, dated 2023)
# What was measured:
# [1] = system: subjects with MDD at imminent risk for suicide; assay: Beck Hopelessness Scale (BHS), […]2001; format: in vivo, human; settings: for BHS total score change, Diff. of LS Means (SE) minus placebo: ANCOVA LOCF
# Text: The BHS is a self-reported measure to assess one's level of negative expectations or pessimism regarding the future. It consists of 20 true-false items that examine the respondent's attitude over the past week by either endorsing a pessimistic statement or denying an optimistic statement. For every statement, each response is assigned a score of 0 or 1. The total BHS score is a sum of item responses and ranges from 0 to 20, with a higher score representing a higher level of hopelessness.
# [2] = system: subjects with MDD at imminent risk for suicide; assay: SIBAT clinical global judgment of suicide risk, […]2001; format: in vivo, human; settings: Baseline(DB), predose Day 1; ITT analysis set
# Text: The clinical global judgment of suicide risk (Module 8) summarizes clinician overall judgment of suicide risk as derived from information gathered from the full SIBAT tool. It operates like numerous other CGI-severity scales that have been used in other psychiatric studies. Change in the clinical global judgment of suicide risk is designed to directly identify clinical meaningful changes in suicidal ideation and to permit classification of suicide risk.
# The analysis of the change in SIBAT score was based on an ANCOVA model on ranks of change in SIBAT with treatment, antidepressant therapy, and analysis center as factors, and baseline value (unranked) as a covariate. There was a significant difference (two-sided […]) between the two treatment groups when comparing the mean rank of change from baseline at Day 1: 4-hours postdose in favor of esketamine 84 mg See, Table 58. See, FIG. 39. […] This difference was not evident at the Day 25 DB endpoint. See, FIG. 40, which is based on LOCF data and analyzed using Cochran-Mantel-Haenszel test controlling for analysis center and antidepressant therapy.
# [3] = system: patients with treatment-resistant depression (TRD); assay: GAD-7, Example 7; format: in vivo, human
# Description: Overall illness severity was assessed on the Clinical Global Impression of Severity (CGI-S) scale (Guy, “ECDEU Assessment Manual for Psychopharmacology-Revised (DHEW Publ No ADM 76-338)”, Rockville, Md.: U.S. Department of Health, Education, and Welfare, Public Health Service, Alcohol, Drug Abuse, and Mental Health Administration, NIMH Psychopharmacology Research Branch, Division of Extramural Research Programs; 1976, pp 218-222). Participants assessed their severity of anxiety on the Generalized Anxiety Disorder 7-item (GADS-7) Scale (See, Tables 157 and 15). See, Spitzer, “A brief measure for assessing generalized anxiety disorder—the GAD-7”, Arch. Intern. Med., 2006, 166(10):1092-1097.
# [4] = system: patients with treatment-resistant depression (TRD); assay: Response, remission and relapse rates (MADRS), Example 7; format: in vivo, human; settings: Period 2 endpoint
# Text: A similar trend for remission (defined as MADRS total score≤10) was observed across groups. […] Response and remission rates at the end of the open-label and follow-up phases are presented by type of treatment in the double-blind and open-label phases in Table 161.
# [5] = system: subjects with MDD at imminent risk for suicide; format: in vivo, human; settings: esketamine 84 mg; safety analysis set
# Description: Of the 68 subjects in the all randomized analysis set, 19 (27.9%) subjects discontinued from the double-blind phase. More subjects in the esketamine 84 mg group discontinued due to adverse events (5 subjects in the esketamine 84 mg group versus 1 subject in the placebo group) whereas more subjects in the placebo group discontinued due to lack of efficacy (4 subjects in the placebo group versus 1 subject in the esketamine 84 mg group).
# More subjects in the esketamine 84 mg group than in the placebo group had all 8 dosing sessions (74.3% vs. 64.5%). Five subjects reduced their dose of esketamine from 84 mg to 56 mg. Of these, 3 reduced their dose due to an adverse event and 2 had their dose reduced in error and were considered major protocol deviations.
# [6] = Text: This example provides an LC-MS/MS method for the determination of ketamine and norketamine in sodium heparin human plasma using ketamine-d4 and norketamine-d4 as the respective internal standards (IS).
# [7] = system: elderly subjects with TRD; format: in vivo, human; settings: each dosing day
# Text: The Modified Observer's Assessment of Alertness/Sedation (MOAA/S) was used to measure treatment-emergent sedation with correlation to levels of sedation defined by the American Society of Anesthesiologists (ASA) continuum. The MOAA/S scores range from 0 (No response to painful stimulus; corresponds to ASA continuum for general anesthesia) to 5 (Readily responds to name spoken in normal tone [awake]; corresponds to ASA continuum for minimal sedation). The proportion of subjects with sedation was <4% for the esketamine group for each dosing day.
# [8] = Day 1(DB): 4H, LOCF, ITT analysis set
# [9] = End Point(DB), LOCF, ITT analysis set
compound,measurement,setting,value
CN[C@]1(c2ccccc2Cl)CCCCC1=O [Esketamine 84 mg],"BHS total score, Median (Range)","[1]; Baseline(DB), predose Day 1, ITT analysis set",17.0 (9; 20)
same,"BHS total score change, Diff. of LS Means (SE) minus placebo",[1]; Day 1(DB): 4H,−1.5 (1.47)
same,"BHS total score change from baseline, Mean (SD)",[1]; [8],−4.1 (5.63)
same,"BHS total score change from baseline, Median (Range)",[1]; [8],−2.0 (−16; 2)
same,"BHS total score, Median (Range)",[1]; [8],14.0 (0; 20)
same,"BHS total score change, Diff. of LS Means (SE) minus placebo",[1]; End Point(DB),−2.3 (1.66)
same,"BHS total score change from baseline, Mean (SD)",[1]; [9],−10.3 (5.51)
same,"BHS total score change from baseline, Median (Range)",[1]; [9],−11.0 (−19; 0)
same,"BHS total score, Mean (SD)",[1]; [9],6.2 (5.96)
same,"BHS total score, Median (Range)",[1]; [9],4.0 (0; 20)
same,"SIBAT Clinical Global Judgment of Suicide Risk, Median (Range)",[2],6.0 (5; 6)
"CN[C@]1(c2ccccc2Cl)CCCCC1=O [esketamine, (S)-2-(2-chlorophenyl)-2-(methylamino)cyclohexanone]",GAD-7 LS mean difference from placebo,"[3]; 28 mg, Period 1",−0.21
same,"GAD-7 change from baseline, LS mean","[3]; 28 mg, Period 1, first day to day 8",−1.5
same,"GAD-7 change from baseline, LS mean","[3]; 28 mg, Period 2, first day to day 8 of period",−1.6
same,GAD-7 LS mean difference from placebo,"[3]; 56 mg, Period 1",−1.40
same,"GAD-7 change from baseline, LS mean","[3]; 56 mg, Period 1, first day to day 8",−3.1
same,GAD-7 LS mean difference from placebo,"[3]; 56 mg, Period 2",0.60
same,"GAD-7 change from baseline, LS mean","[3]; 56 mg, Period 2, first day to day 8 of period",1.0
same,"GAD-7 change from baseline, LS mean","[3]; 84 mg, Period 1, first day to day 8",−5.1
same,"GAD-7 change from baseline, LS mean","[3]; 84 mg, Period 2, first day to day 8 of period",−0.9
same,Proportion of responders (≥50% improvement from baseline in MADRS total score),[4]; 56 mg,36.4%
same,Proportion of responders (≥50% improvement from baseline in MADRS total score),[4]; 84 mg,50.0%
same,Dose decreased during double-blind: No,[5],29 (82.9%)
same,Dose decreased during double-blind: Yes,[5],6 (17.1%)
same,QC sample freeze/thaw stability,[6]; freeze (−20° C.)/thaw (room temperature),3 freeze (−20° C.)/thaw (room temperature) cycles
same,QC sample bench-top stability,"[6]; human plasma, room temperature",18 hours at room temperature
same,Proportion of subjects with sedation (post dose MOAA/S score of ≤3),[7],< 4%
